Source: ChEMBL document CHEMBL1148633, “Inhibition of carbonic anhydrase-II by sulfamate and sulfamide groups: an investigation involving direct thermodynamic binding measurements” (J Med Chem, 2006)

Columns and labels:
[1] = target: T1, Carbonic anhydrase 2 (Homo sapiens, UniProt P00918); test: Inhibition of human CA2 by 4-nitrophenyl acetate hydrolysis
[2] = target: T1, Carbonic anhydrase 2; test: Binding affinity to human CA2 in presence of sodium sulfate and ANS at pH 7.5 by ThermoFluor assay
[3] = target: T1, Carbonic anhydrase 2; test: Binding affinity to human CA2 at pH 7.4 by ThermoFluor assay
[4] = target: T1, Carbonic anhydrase 2
Description: Inhibition of human CA2 by carbon dioxide hydration

Row | Ki [1] [µM] | Kd [2] [nM] | Kd [3] [µM] | Ki [4] [µM] | SMILES
1 | 1.74 | 1000 | 1.5 | 0.892 | NS(=O)(=O)Nc1ccc([N+](=O)[O-])cc1
2 | 18.8 | 2650 | 5 | 14.4 | COc1ccc(NS(N)(=O)=O)cc1
